Measurements as given in publication PMC9229919, “4-Aminoquinoline-Based Adamantanes as Potential Anticholinesterase Agents in Symptomatic Treatment of Alzheimer’s Disease” (Pharmaceutics, 2022).
Read-outs that look alike come from different tables or passages of the source.

Key:
[1] = Reverse-phase thin-layer chromatographic lipophilicity (RF, RM0); type: physicochemical; conditions: for RM0: intercept of RM = RM0 + bC; for b: slope of RM = RM0 + bC; for RF, Methanol/Water/Hydrochloric acid (conc.), mobile phase I / RF, Dioxane/Water/Hydrochloric acid (conc.), mobile phase II / RF, Methanol/Water/Hydrochloric acid (conc.), mobile phase II / RF, Acetone/Water/Hydrochloric acid (conc.), mobile phase III / RF, Dioxane/Water/Hydrochloric acid (conc.), mobile phase III / RF, Methanol/Water/Hydrochloric acid (conc.), mobile phase III / RF, Dioxane/Water/Hydrochloric acid (conc.), mobile phase IV / RF, Acetone/Water/Hydrochloric acid (conc.), mobile phase IV / RF, Methanol/Water/Hydrochloric acid (conc.), mobile phase IV / RF, Acetone/Water/Hydrochloric acid (conc.), mobile phase IX / RF, Methanol/Water/Hydrochloric acid (conc.), mobile phase IX / RF, Dioxane/Water/Hydrochloric acid (conc.), mobile phase V / RF, Acetone/Water/Hydrochloric acid (conc.), mobile phase V / RF, Methanol/Water/Hydrochloric acid (conc.), mobile phase V / RF, Dioxane/Water/Hydrochloric acid (conc.), mobile phase VI / RF, Acetone/Water/Hydrochloric acid (conc.), mobile phase VI / RF, Methanol/Water/Hydrochloric acid (conc.), mobile phase VI / RF, Acetone/Water/Hydrochloric acid (conc.), mobile phase VII / RF, Methanol/Water/Hydrochloric acid (conc.), mobile phase VII / RF, Acetone/Water/Hydrochloric acid (conc.), mobile phase VIII / RF, Methanol/Water/Hydrochloric acid (conc.), mobile phase VIII: RP-18 silica; for RF, Methanol/Water/Hydrochloric acid (conc.), mobile phase I: I = 90%MeOH/5%H2O/5%HCl; for RF, Dioxane/Water/Hydrochloric acid (conc.), mobile phase II: II = 80%Dioxane/15%H2O/5%HCl; for RF, Methanol/Water/Hydrochloric acid (conc.), mobile phase II: II = 85%MeOH/10%H2O/5%HCl; for RF, Acetone/Water/Hydrochloric acid (conc.), mobile phase III: III = 70%AC/25%H2O/5%HCl; for RF, Dioxane/Water/Hydrochloric acid (conc.), mobile phase III: III = 70%Dioxane/25%H2O/5%HCl; for RF, Methanol/Water/Hydrochloric acid (conc.), mobile phase III: III = 80%MeOH/15%H2O/5%HCl; for RF, Dioxane/Water/Hydrochloric acid (conc.), mobile phase IV: IV = 60%Dioxane/35%H2O/5%HCl; for RF, Acetone/Water/Hydrochloric acid (conc.), mobile phase IV: IV = 65%AC/30%H2O/5%HCl; for RF, Methanol/Water/Hydrochloric acid (conc.), mobile phase IV: IV = 75%MeOH/20%H2O/5%HCl; for RF, Acetone/Water/Hydrochloric acid (conc.), mobile phase IX: IX = 40%AC/55%H2O/5%HCl; for RF, Methanol/Water/Hydrochloric acid (conc.), mobile phase IX: IX = 50%MeOH/45%H2O/5%HCl; for RF, Dioxane/Water/Hydrochloric acid (conc.), mobile phase V: V = 50%Dioxane/45%H2O/5%HCl; for RF, Acetone/Water/Hydrochloric acid (conc.), mobile phase V: V = 60%AC/35%H2O/5%HCl; for RF, Methanol/Water/Hydrochloric acid (conc.), mobile phase V: V = 70%MeOH/25%H2O/5%HCl; for RF, Dioxane/Water/Hydrochloric acid (conc.), mobile phase VI: VI = 40%Dioxane/55%H2O/5%HCl; for RF, Acetone/Water/Hydrochloric acid (conc.), mobile phase VI: VI = 55%AC/40%H2O/5%HCl; for RF, Methanol/Water/Hydrochloric acid (conc.), mobile phase VI: VI = 65%MeOH/30%H2O/5%HCl; for RF, Acetone/Water/Hydrochloric acid (conc.), mobile phase VII: VII = 50%AC/45%H2O/5%HCl; for RF, Methanol/Water/Hydrochloric acid (conc.), mobile phase VII: VII = 60%MeOH/35%H2O/5%HCl; for RF, Acetone/Water/Hydrochloric acid (conc.), mobile phase VIII: VIII = 45%AC/50%H2O/5%HCl; for RF, Methanol/Water/Hydrochloric acid (conc.), mobile phase VIII: VIII = 55%MeOH/40%H2O/5%HCl
Method: Chromatographic determination of lipophilicity
Merck, Darmstadt, Germany). The mobile phase contained organic modifier (methanol, acetone or dioxane), water and hydrochloric acid.
Methanol was varied in the range […]
with an increment of 10%. […]
before chromatogram development. The solvent developing distance was 4.5 cm. Detection of […]
All experiments were performed at ambient temperature (22±2 °C). Retention parameters were calculated as previously described. […]

recombinant human AChE = target: T1, recombinant human AChE (Homo sapiens, UniProt P22303); assay: biochemical; type: biochemical; conditions: for IS: IS = Ki(BChE)/Ki(AChE), IS > 1 selective to AChE
T1 construct: gift of Dr Florian Nachon (Armed Forces Biomedical Research Institute, Brétigny-sur-Orge, France)
Method: (§1) Acetylthiocholine (ATCh) and 5,5′-dithiobis(2-nitrobenzoic acid) (DTNB) were purchased from Sigma-Aldrich, St. Louis, MO, USA. ATCh was dissolved in water and DTNB in 0.1 M sodium phosphate buffer (pH 7.4). The 4-aminoquinilines were dissolved in DMSO and all further dilutions were made in water.
(§2) The sources of AChE and BChE were purified human BChE and recombinant human AChE that was kindly provided by Dr Florian Nachon (Département de Toxicologie, Armed Forces Biomedical Research Institute, Brétigny-sur-Orge, France). […] The enzymes were diluted in sodium phosphate buffer 0.1 M (pH 7.4) containing 0.1% BSA.
(§3) Enzyme activities were measured spectrophotometrically using a slightly modified Ellman method, as described earlier. […] At least three inhibitor concentrations for each substrate concentration were used in at least three experiments. The apparent inhibition constant (Ki,app) was calculated using the Hunter–Downs Equation and linear regression analysis:(1) Ki,app=vi·i/v0−vi=Ki+Ki/KS·s where the y-intercept determines the enzyme-inhibitor dissociation constant (Ki), while the x-intercept determines the enzyme-substrate dissociation constant, KS.
(§4) The Hunter–Downs Equation was used under the assumption that the substrate, due to relatively low concentrations used in experiments, would bind only to the catalytic site of the enzymes, while the inhibitors would bind to both CAS and/or PAs. This allowed the type of inhibition to be determined from Ki,app vs. substrate concentration ([S]) dependency on Hunter–Downs plot.
(§5) The final content of DMSO in the measurements was up to 0.2%. […] The measurements were performed at 25 °C on a Tecan Infinite M200Pro plate reader (Tecan Austria GmbH, Salzburg, Austria).

purified human BChE = target: T2, purified human BChE (Homo sapiens, UniProt P06276); assay: biochemical; type: biochemical
T2 construct: possibly also a gift of Dr Florian Nachon (the sentence is ambiguous)
Method: as §1, §2, §3, §4, §5

[2] = Ferric reducing antioxidant power (FRAP) assay; conditions: mean ± standard error of three experiments;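 note: expressed as µM Fe2+ equivalents from an FeSO4·7H2O standard curve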
Method: . All the chemicals were purchased from Sigma-Aldrich (St. Louis, MO, USA), except for tripyridyltriazine (TPTZ) (Fluka, Buchs, Switzerland) and FeCl3 (Kemika, Zagreb, Croatia). The FRAP assay was assessed according to Benzie and Strain [53] with slight procedure adjustments for 96-well microplates. The method is based on the reduction of the ferric-tripyridyltriazine (Fe^3+-TPTZ) complex to ferrous tripyridyltriazine (Fe^2+-TPTZ) by the action of electron-donating compounds at a low pH. Briefly, the FRAP reagent was prepared by mixing acetate buffer (300 mM, pH 3.6), a solution of 10 mM TPTZ in 40 mM HCl, and 20 mM FeCl3 at 10:1:1 (v/v/v). Then, 240 μL of FRAP reagent and 10 μL of sample solution were added to a 96-well plate and incubated at 37 °C for 60 min. The absorbance was measured at 593 nm using a microplate reader (Infinite M200PRO, Tecan Austria GmbH, Salzburg, Austria) against a blank. The reducing capacity was determined for 10 and 100 µM compound concentrations. […]. All measurements were performed in three independent experiments. FRAP values, denominating the reduction of ferric-tripyridyltriazine (Fe^3+-TPTZ) to ferrous tripyridyltriazine (Fe^2+-TPTZ) by 4-aminoquinolines were calculated based on a standard curve obtained using […].

[3] = Acetone/Water/Hydrochloric acid (conc.)
[4] = Dioxane/Water/Hydrochloric acid (conc.)
[5] = Methanol/Water/Hydrochloric acid (conc.)
[6] = log (Ki/µM AChE), read-out: Y Measured 1 log(ki)Ache (converted)
[7] = ± standard error, 25 °C, ATCh substrate, read-out: Ki AChE
[8] = logarithm of Ki in µM, BChE, dependent variable of the QSAR model, read-out: Y Measured 2 log(ki)Bche, log (Ki/µM BChE) (converted)
[9] = ± standard error, 25 °C, ATCh substrate, read-out: Ki BChE

T2 sequence (P06276 29-602): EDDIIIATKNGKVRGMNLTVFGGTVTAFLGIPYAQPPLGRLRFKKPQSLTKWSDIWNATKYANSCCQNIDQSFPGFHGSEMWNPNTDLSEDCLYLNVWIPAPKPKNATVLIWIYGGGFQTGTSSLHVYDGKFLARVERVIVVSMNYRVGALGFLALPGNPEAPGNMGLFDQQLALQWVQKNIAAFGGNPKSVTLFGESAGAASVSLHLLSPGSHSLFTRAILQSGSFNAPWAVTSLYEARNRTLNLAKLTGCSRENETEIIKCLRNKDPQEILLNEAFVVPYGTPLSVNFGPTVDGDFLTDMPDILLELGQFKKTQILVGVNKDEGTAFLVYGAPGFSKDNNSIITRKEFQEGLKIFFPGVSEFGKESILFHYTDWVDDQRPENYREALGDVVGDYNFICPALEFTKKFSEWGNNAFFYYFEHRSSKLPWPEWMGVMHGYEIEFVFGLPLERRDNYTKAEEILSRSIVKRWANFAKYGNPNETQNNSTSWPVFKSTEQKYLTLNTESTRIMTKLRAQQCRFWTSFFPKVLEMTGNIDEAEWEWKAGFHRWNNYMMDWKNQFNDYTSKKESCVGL
T1 sequence (P22303 32-614): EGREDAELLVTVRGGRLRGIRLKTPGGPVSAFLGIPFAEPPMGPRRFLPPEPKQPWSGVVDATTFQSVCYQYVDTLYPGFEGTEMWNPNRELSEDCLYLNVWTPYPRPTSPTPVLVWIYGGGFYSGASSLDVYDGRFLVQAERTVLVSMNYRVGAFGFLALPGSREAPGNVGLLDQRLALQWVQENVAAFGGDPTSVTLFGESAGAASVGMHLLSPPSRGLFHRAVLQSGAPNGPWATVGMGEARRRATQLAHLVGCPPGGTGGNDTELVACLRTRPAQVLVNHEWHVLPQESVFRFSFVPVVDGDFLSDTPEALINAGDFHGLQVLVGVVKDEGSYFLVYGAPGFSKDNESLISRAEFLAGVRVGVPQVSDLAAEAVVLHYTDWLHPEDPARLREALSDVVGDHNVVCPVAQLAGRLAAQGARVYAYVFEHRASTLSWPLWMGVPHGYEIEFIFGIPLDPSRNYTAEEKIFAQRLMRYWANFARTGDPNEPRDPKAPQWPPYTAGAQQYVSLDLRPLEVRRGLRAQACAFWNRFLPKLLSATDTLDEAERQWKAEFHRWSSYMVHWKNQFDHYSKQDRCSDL

SMILES | RM0 [1, 3] | b [1, 3] | RM0 [1, 4] | b [1, 4] | RM0 [1, 5] | b [1, 5] | RF, Methanol/Water/Hydrochloric acid (conc.), mobile phase I [1] | RF, Dioxane/Water/Hydrochloric acid (conc.), mobile phase II [1] | RF, Methanol/Water/Hydrochloric acid (conc.), mobile phase II [1] | RF, Acetone/Water/Hydrochloric acid (conc.), mobile phase III [1] | RF, Dioxane/Water/Hydrochloric acid (conc.), mobile phase III [1] | RF, Methanol/Water/Hydrochloric acid (conc.), mobile phase III [1] | RF, Dioxane/Water/Hydrochloric acid (conc.), mobile phase IV [1] | RF, Acetone/Water/Hydrochloric acid (conc.), mobile phase IV [1] | RF, Methanol/Water/Hydrochloric acid (conc.), mobile phase IV [1] | RF, Acetone/Water/Hydrochloric acid (conc.), mobile phase IX [1] | RF, Methanol/Water/Hydrochloric acid (conc.), mobile phase IX [1] | RF, Dioxane/Water/Hydrochloric acid (conc.), mobile phase V [1] | RF, Acetone/Water/Hydrochloric acid (conc.), mobile phase V [1] | RF, Methanol/Water/Hydrochloric acid (conc.), mobile phase V [1] | also measured
Clc1ccc2c(NCCCCCCNCC34CC5CC(CC(C5)C3)C4)ccnc2c1 [Compound 4] | 2.036 | 3.254 | 0.9103 | 1.922 | 2.899 | 3.742 | 0.72 | 0.78 | 0.66 | 0.6 | 0.73 | 0.47 | 0.72 | 0.55 | 0.49 | 0.11 | 0.06 | 0.52 | 0.45 | 0.4 | RF, Dioxane/Water/Hydrochloric acid (conc.), mobile phase VI [1]: 0.38; RF, Acetone/Water/Hydrochloric acid (conc.), mobile phase VI [1]: 0.37; RF, Methanol/Water/Hydrochloric acid (conc.), mobile phase VI [1]: 0.31; RF, Acetone/Water/Hydrochloric acid (conc.), mobile phase VII [1]: 0.33; RF, Methanol/Water/Hydrochloric acid (conc.), mobile phase VII [1]: 0.2; RF, Acetone/Water/Hydrochloric acid (conc.), mobile phase VIII [1]: 0.26; RF, Methanol/Water/Hydrochloric acid (conc.), mobile phase VIII [1]: 0.13; IS (recombinant human AChE): 1.1; Ki (recombinant human AChE; [6]): 0.67 µM; Ki (recombinant human AChE; [7]): 0.67 ± 0.02 µM; Ki (purified human BChE; [8]): 0.76 µM; Ki (purified human BChE; [9]): 0.76 ± 0.06 µM; FRAP ([2]; 10 µM compound): 1.9 ± 0.5 µM; FRAP ([2]; 100 µM compound): 58 ± 10 µM
Clc1ccc2c(NCCCCCCCCNCC34CC5CC(CC(C5)C3)C4)ccnc2c1 [Compound 5] | 2.706 | 4.173 | 1.151 | 2.214 | 3.7376 | 4.663 | 0.67 | 0.78 | 0.62 | 0.55 | 0.7 | 0.42 | 0.7 | 0.49 | 0.44 | 0.04 | 0.02 | 0.47 | 0.39 | 0.34 | RF, Dioxane/Water/Hydrochloric acid (conc.), mobile phase VI [1]: 0.31; RF, Acetone/Water/Hydrochloric acid (conc.), mobile phase VI [1]: 0.32; RF, Methanol/Water/Hydrochloric acid (conc.), mobile phase VI [1]: 0.23; RF, Acetone/Water/Hydrochloric acid (conc.), mobile phase VII [1]: 0.28; RF, Methanol/Water/Hydrochloric acid (conc.), mobile phase VII [1]: 0.11; RF, Acetone/Water/Hydrochloric acid (conc.), mobile phase VIII [1]: 0.19; RF, Methanol/Water/Hydrochloric acid (conc.), mobile phase VIII [1]: 0.07; less potent AChE inhibitor than donepezil and tacrine (recombinant human AChE): 2 to 3 times; IS (recombinant human AChE): 1.2; Ki (recombinant human AChE; [6]): 0.0759 µM; increase in AChE inhibition potency (recombinant human AChE; n-octylene spacer vs unbranched compounds with shorter spacer): about 12 times; Ki (recombinant human AChE; [7]): 0.075 ± 0.06 µM; increase in BChE inhibition vs compounds 3 and 4 (purified human BChE): about 9 times; more potent BChE inhibitor than galantamine (purified human BChE; comparator ref [63]): 12 times; Ki (purified human BChE; [8]): 0.0912 µM; Ki (purified human BChE; [9]): 0.091 ± 0.007 µM; FRAP ([2]; 10 µM compound): 9.5 ± 1.9 µM; FRAP ([2]; 100 µM compound): 82 ± 4 µM
